According to patent US9932589B2, “EML4-ALK fusion gene” (Astellas Pharma Inc., priority 2006, dated 2018):

Columns and labels:
U-87MG cells = assay: anchorage independent growth on spheroid plate, U-87MG cells expressing full length ALK; assay type: cell-based, human; conditions: siRNA transfected, 3 days; for U-87MG cell growth inhibition rate: spheroid plate
Experimental: (§1) The v1 expressing 3T3 cells (Example 6(1)) and one of the human glioma cells expressing the full length ALK polypeptide and not expressing EML4-ALK fusion polynucleotide endogenously, U-87 MG cells, were seeded to a 96 well spheroid plate (Sumilon Celltight Spheroid 96U, Sumitomo Bakelite Inc.) at 3000 cells per well in a medium containing 10% fetal bovine serum (DMEM for v1 expressing 3T3 cells and RPMI 1640 for U-87MG). […] At the same time, cells were counted before the addition of drugs (Day 0). Then, cells were cultured under 5% CO2, at 37° C. for 3 days, mixed with a reagent for measuring cell number (CellTiter-Glo™ Luminescent Cell Viability Assay; Promega Inc.) stirred for 20 minutes, and the measurements (day 3) were carried out using a luminometer (ML3000 microtiter plate luminometer; Dynatech Laboratories Inc.).

human ALK gene = assay: siRNA inhibition of mRNA expression of ALK gene in U-87MG cells, quantitative PCR; assay type: cell-based; conditions: siRNA 20 nM, 72 hours; for Inhibition rate for ALK gene expression (U-87 MG cells): mRNA
Experimental: (§2) The v1 expressing 3T3 cells and U-87MG cells were seeded to 12 well plates (IWAKI; Asahi techno glass corp.) at 50,000 cells and 150,000 cells, respectively. Four hours later, using a transfection reagent (Lipofectamine RNAiMax; Invitrogen Inc.), siRNA-1 to siRNA-9 were prepared to a final concentration of 20 nM and transfected to cells according to the attached instruction. In addition, as a control no siRNA transfection samples were prepared. After 72 hours, the medium was removed, and total RNA was extracted using an RNA purification kit (RNeasy Mini Kit; QIAGEN Inc.) according to the attached instruction, and cDNA was prepared using a cDNA synthesizing kit (ThermoScript RT-PCR System; Invitrogen Inc.) according to the attached instruction.
(§3) The amount of expressed mRNA of the EML4-ALK fusion polynucleotide v1 in v1 expressing 3T3 cells and the amount of mRNA of the ALK gene in U-87MG cells were quantitated using a quantitative PCR reagent (Power SYBR Green PCR Master Mix; Applied Biosystems Inc.) The PCR reaction was carried out as follows: after 10 minutes incubation at 95° C., 45 cycles of 95° C. for 15 seconds and 60° C. for 60 seconds, and then one cycle of 95° C. for 15 seconds, 60° C. for 15 seconds and 95° C. for 15 seconds to complete the reaction. In addition, to calibrate the amount of expression, the amount of expression of the mouse cyclophilin B gene and the human GAPDH gene was similarly quantitated for v1 expressing 3T3 cells and U-87MG cells, respectively. Analyses were carried out using a sequence detector (ABI PRISM 7900 Sequence Detection System; Perkin-Elmer Applied Biosystems Inc.).
(§4) Oligo nucleotides consisting of the base sequences represented by SEQ ID NO: 44 and 48, SEQ ID NO: 50 and 56, SEQ ID NO: 44 and 48 and SEQ ID NO: 12 and 13 were used as the primer sets that specifically recognize the EML4-ALK fusion polynucleotide v1, the mouse cyclophilin B gene, the human ALK gene and the human GAPDH gene. Also, to obtain a standard curve to calculate the amount of respective mRNA, PCR was performed using human genomic DNA (Clontech) as a template for EML4-ALK fusion polynucleotide v1, human ALK and human GAPDH, and using mouse genomic DNA (Clontech) as a template for mouse cyclophilin B and the aforementioned primer sets under the same condition. Since a primer set corresponding to human ALK polynucleotide exon 29 was used to detect the EML4-ALK fusion polynucleotide v1, the standard curve can be obtained using human genomic DNA. The expression amount of the EML4-ALK fusion polynucleotide v1 and the human ALK gene in respective samples was calibrated with the expression amount of the mouse cyclophilin B gene and the human GAPDH gene to obtain the calibrated expression amount.

[1] = tested on: EML4-ALK fusion polynucleotide v1; assay: siRNA inhibition of mRNA expression of EML4-ALK fusion polynucleotide v1 in v1 expressing 3T3 cells, quantitative PCR; assay type: cell-based, mouse; conditions: siRNA 20 nM, 72 hours; for Inhibition rate for EML4-ALK gene expression (v1 expressing 3T3 cells): mRNA
Experimental: as §2, §3, §4

v1 expressing 3T3 cells = assay: anchorage independent growth on spheroid plate, v1 expressing 3T3 cells; assay type: cell-based, mouse; conditions: siRNA transfected, 3 days; for v1 expressing 3T3 cells growth inhibition rate: spheroid plate
Experimental: as §1

Row | Substance | U-87MG cell growth inhibition rate (U-87MG cells) | Inhibition rate for ALK gene expression (U-87 MG cells) (human ALK gene) | Inhibition rate for EML4-ALK gene expression (v1 expressing 3T3 cells) [1] | v1 expressing 3T3 cells growth inhibition rate (v1 expressing 3T3 cells) | growth of U-87MG cells (in words) (U-87MG cells) | expression inhibitory effect on the human ALK gene (in words) (human ALK gene) | anchorage independent growth of v1 expressing 3T3 cells (in words) (v1 expressing 3T3 cells) | expression inhibitory effect on the EML4-ALK fusion polynucleotide (in words) [1]
1 | siRNA-1: siRNA, sense strand SEQ ID NO: 111, antisense SEQ ID NO: 112; fusion area of EML4-ALK v1 (sense UGGGAAAGGACCUAAAGTGTA; antisense CACTTTAGGUCCUUUCCCAGG; chemistry not given here) | −13% | −12% | 80% |  |  |  |  | 
2 | siRNA-2: siRNA, sense strand SEQ ID NO: 113, antisense SEQ ID NO: 114; fusion area of EML4-ALK v1 (sense GGGAAAGGACCUAAAGTGTAC; antisense ACACTTUAGGUCCUUUCCCAG; chemistry not given here) | 25% | 11% | 66% |  |  |  |  | 
3 | siRNA-3: siRNA, sense strand SEQ ID NO: 115, antisense SEQ ID NO: 116; fusion area of EML4-ALK v1 (sense GGACCUAAAGUGUACCGCCGG; antisense GGCGGTACACUUUAGGUCCUU; chemistry not given here) | −21% | 10% | 62% |  |  |  |  | 
4 | siRNA-4: siRNA, sense strand SEQ ID NO: 117, antisense SEQ ID NO: 118; fusion area of EML4-ALK v1 (sense CCUAAAGUGUACCGCCGGAAG; antisense TCCGGCGGUACACUUUAGGUC; chemistry not given here) | −8% | 22% | 86% |  |  |  |  | 
5 | siRNA-5: siRNA, sense strand SEQ ID NO: 119, antisense SEQ ID NO: 120; fusion area of EML4-ALK v1 (sense AAAGUGUACCGCCGGAAGCAC; antisense GCTTCCGGCGGUACACUUUAG; chemistry not given here) | −13% | −22% | 76% |  |  |  |  | 
6 | siRNA-6: siRNA, sense strand SEQ ID NO: 121, antisense SEQ ID NO: 122; fusion area of EML4-ALK v1 (sense AAGUGUACCGCCGGAAGCACC; antisense TGCTTCCGGCGGUACACUUUA; chemistry not given here) | 16% | 15% | 69% | 97% |  |  |  | 
7 | siRNA-7: siRNA, sense strand SEQ ID NO: 123, antisense SEQ ID NO: 124; ALK area of EML4-ALK v1 (sense GGCCUGUAUACCGGATAATGA; antisense ATTATCCGGUAUACAGGCCCA; chemistry not given here) | 15% |  | 67% | 87% | did not inhibit the growth of U-87MG cells |  |  | 
8 | siRNA-8: siRNA, sense strand SEQ ID NO: 125, antisense SEQ ID NO: 126; ALK area of EML4-ALK v1 (sense GGCCUGUAUACCGGAUAAUGA; antisense AUUAUCCGGUAUACAGGCCCA; chemistry not given here) | −21% |  | 70% |  | did not inhibit the growth of U-87MG cells |  |  | 
9 | siRNA-9: negative control siRNA, SEQ ID NO: 127 and 128, base sequence not present in mammalian cells (chain 1 CGGCUGCAAUCGATTGATAGC; chain 2 TATCAAUCGAUUGCAGCCGAA; chemistry not given here) | −16% | −31% | 29% | −35% | did not inhibit the growth | did not demonstrate strong expression inhibitory effect | did not inhibit the growth | did not demonstrate strong expression inhibitory effect
